{"source": "patent US9986723B2", "about": "“Screen and use of therapeutics for pancreatic ductal adenocarcinoma” (The Board of Regents of the University of Texas System, priority 2014, dated 2018)", "key": {"[1]": {"system": "pancreatic ductal adenocarcinoma (PDA) metastases", "assay": "Metastatic burden in five murine models of PDA under low dose warfarin", "format": "in vivo, mouse", "conditions": "four of the five PDA models; warfarin 0.5-1 mg/L drinking water", "experimental": "(§1) (FIG. 23A) Primary tumor burden after therapy with warfarin. Therapy was initiated when implanted tumors were visible by ultrasound (˜10 mm^3) and consisted of control (normal drinking water) or warfarin, administered in the drinking water at 0.5 mg/L (immunocompetent mice: Pan02 (n=4, control; 3, warfarin), KIC (n=10, control; 8, warfarin)) or 1 mg/L (Panc-1 (n=10, control; 8, warfarin), AsPC-1 (n=8, control; 6, warfarin), Capan-1 (n=10, control; 7, warfarin)) and continued for 2-4 weeks until control mice were moribund. Therapy in KIC mice was initiated at 3 weeks of age and continued for 4 weeks. (FIG. 23B) Metastases were determined grossly upon sacrifice and confirmed by histological evaluation of the liver. […] Incidence of metastasis is also indicated. […] Tumor volume determined by serial ultrasound. […] Therapy with mAb 10C9 (250 μg 2×/week) was initiated when tumors were established as above and persisted for 4 weeks. […] Error bars indicate s.e.m.\n(§2) Animal studies. […] Mice with established tumors, as determined by sonography were randomized to receive normal drinking water or water containing 1 mg/L (˜3.0 μM) warfarin for experiments in immunocompromised mice and 0.5 mg/L (˜1.5 μM) in experiments in immunocompetent animals with or without gemcitabine 25 mg/kg twice weekly depending on experimental design."}, "[2]": {"target": "T1, Axl (Homo sapiens, UniProt P30530)", "T1 construct": "Lysates were probed for total Axl (tAxl) and phosphorylated Axl (pAxl); endogenous in cells; host or cells: Panc-1", "T1 sequence (P30530 26-894)": "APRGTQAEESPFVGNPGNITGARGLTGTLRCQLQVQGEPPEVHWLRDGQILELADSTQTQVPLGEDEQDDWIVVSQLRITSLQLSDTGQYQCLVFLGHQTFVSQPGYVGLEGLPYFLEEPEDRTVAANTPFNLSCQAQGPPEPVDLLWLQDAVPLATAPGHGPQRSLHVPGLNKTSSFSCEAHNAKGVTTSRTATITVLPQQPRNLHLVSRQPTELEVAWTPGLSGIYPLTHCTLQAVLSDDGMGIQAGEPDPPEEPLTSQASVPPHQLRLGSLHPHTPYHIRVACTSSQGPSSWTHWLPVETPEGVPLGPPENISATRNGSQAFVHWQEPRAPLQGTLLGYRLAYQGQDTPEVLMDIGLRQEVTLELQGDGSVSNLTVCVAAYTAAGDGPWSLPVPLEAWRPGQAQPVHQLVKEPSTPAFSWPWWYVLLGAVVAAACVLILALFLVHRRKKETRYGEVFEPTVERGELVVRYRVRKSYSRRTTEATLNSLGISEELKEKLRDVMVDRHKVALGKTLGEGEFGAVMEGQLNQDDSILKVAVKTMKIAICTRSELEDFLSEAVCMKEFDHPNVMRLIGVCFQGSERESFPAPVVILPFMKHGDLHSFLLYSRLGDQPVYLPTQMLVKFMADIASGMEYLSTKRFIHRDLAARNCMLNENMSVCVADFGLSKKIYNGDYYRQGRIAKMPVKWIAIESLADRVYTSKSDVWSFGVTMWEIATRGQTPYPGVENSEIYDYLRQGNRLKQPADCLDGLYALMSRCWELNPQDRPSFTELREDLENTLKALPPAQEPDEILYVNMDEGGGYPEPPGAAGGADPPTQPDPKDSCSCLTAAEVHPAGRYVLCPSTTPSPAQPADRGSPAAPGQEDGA", "assay": "Phosphorylated Axl in Panc-1 cells (western blot, immunofluorescence)", "format": "cell-based", "conditions": "overnight, 1% serum, 2 μM", "experimental": "(FIG. 24A) HEK293 cells engineered to stably express recombinant Gas6 were grown in the presence of Vitamin K or Vitamin K+warfarin. Gas6 levels and γ-carboxylation were assayed by immunoblotting conditioned media. Conditioned media from untransfected HEK293 cells was used as a negative control. (FIG. 24B) Panc1 cells were grown overnight in media with 1% serum with no additions (NT), warfarin (2 μM) or BGB324 (2 μM). Lysates were probed for total Axl (tAxl) and phosphorylated Axl (pAxl). (FIG. 24C) Panc1 cells were grown in the presence of control media, Vitamin K, warfarin or warfarin+Vitamin K. The level of phosphorylated Axl (pAXL, red) was determined by immunofluorescence. (FIG. 24D) Panc1 cells were grown overnight in media with 1% serum with no additions (control), warfarin (1 μM), Gas6 (1.3 nM) or Gas6+warfarin. Lysates were probed for phosphorylated Akt (pAkt) and actin. (FIG. 24E) Lysates from Panc1 tumors harvested from mice treated with control or warfarin were probed for expression of tAxl, pAxl, actin, pAKT, tAKT, and cleaved Parp. (FIG. 24F) The effect of warfarin on cell migration was assessed by a ‘scratch’ assay. Monolayers of the indicted cells were wounded with a pipet tip. The cells were incubated in media containing 2% serum+/−warfarin (2 μM) or media containing 2% serum+Gas6 (1.3 nM)+/−warfarin."}, "[3]": {"target": "vitamin K epoxide reductase (Homo sapiens, UniProt Q9BQB6)", "sequence (Q9BQB6 whole entry)": "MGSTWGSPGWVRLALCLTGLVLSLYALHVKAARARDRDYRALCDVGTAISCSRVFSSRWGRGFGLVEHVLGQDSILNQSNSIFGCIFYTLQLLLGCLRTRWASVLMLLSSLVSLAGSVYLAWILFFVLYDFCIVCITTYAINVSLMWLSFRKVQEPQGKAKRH", "conditions": "cited from earlier work"}, "[4]": {"system": "AsPC-1, Mia PaCa-2, and Capan-1 cells", "assay": "Soft agar anchorage-independent growth assay", "format": "cell-based, human", "conditions": "warfarin 2 μM, 14 days; Axl-expressing cells", "experimental": "FIGS. 25A-I. Axl inhibition reduces colony formation and enhances chemotherapy. (FIGS. 25A-C) parental Mia PaCa-2 cells or Mia PaCa-2 cells stably transfected with shRNA targeting Axl (Mia shAxl) were grown as spheroids in matrigel for 7 days in the presence or absence of warfarin (200 ng/ml), n=4/condition. Mia PaCa-2 cell colonies form large stellate colonies characteristic of invasive tumor growth. Colonies and cognate cell projections were imaged (FIG. 25A) with a Nikon Phase contrast microscope using 40× and 200× magnification. Mean total colony number (FIG. 25B) and total colony area+/−s.d. (FIG. 25C) reflective of invasive growth were calculated using Image J image analysis. Scale bar, 100 μm. ****, p<0.001 vs Mia PaCa-2 NT; ##, p<0.01; ###, p<0.005. by ANOVA with Tukey's MCT. […] (FIG. 25E) liver metastases were quantified after intrasplenic injection of C5LM2 cells. […] Mice were sacrificed when control treated animals were moribund and primary and metastatic burden was determined. […]\nAnchorage-independent growth assays were performed by coating 12 well plates with 0.5-0.75% agar. […] Fresh media and drug were added twice weekly and colonies were measured by light microscopy at 2 weeks; assays were performed in quadruplicate."}, "[5]": {"system": "KIC tumors", "assay": "Low dose warfarin in drinking water, spontaneous genetic PDA model", "format": "in vivo, mouse", "conditions": "warfarin 0.5 mg/L drinking water, 4 weeks from 3 weeks of age", "experimental": "as §1, §2"}}, "data": [{"compound": "CC(=O)CC(c1ccccc1)c1c(O)c2ccccc2oc1=O", "note": "(racemic) [Warfarin]", "values": [{"measurement": "metastatic burden", "setting": "[1]", "result": "consistently and potently inhibited metastatic burden"}, {"measurement": "phosphorylation of Axl (pAxl)", "setting": "[2]", "result": "inhibited basal pAxl levels"}, {"measurement": "duration of action of a single dose", "setting": "[3]", "result": "2 to 5", "unit": "days"}, {"measurement": "anchorage independent growth", "setting": "[4]", "result": "inhibited"}, {"measurement": "primary tumor growth", "setting": "[5]", "result": "reduced primary tumor growth"}]}]}
